Reference: patent US20240043404A1 (AbbVie Inc., priority 2009, published 2024)

What follows are molecules tested on RS4;11 cells (assay: RS4;11 cell viability assay (CellTiter Glo)). Conditions: Homo sapiens, RS4-11, 48 h, 50,000 cells per well, 10% human serum, 48 hours; read-out: RS4; 11 EC50 Values.
Type: cell-based, human
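Also: acute lymphoblastic leukemia line RS4,11, EC50 derived from percentage of viable cells after treatment relative to untreated controls, cell killing taken as a measure of Bcl-2 inhibition.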
Procedure: The acute lymphoblastic leukemia (ALL) cell line RS4;11 was used as the primary human cell line to assess the cellular activity of Bcl-2 selective agents in vitro and their efficacy in vivo.
Cell cytotoxicity EC50 values were assessed using CellTiter Glo (Promega) according to the manufacturer's recommendations. The EC50 values were determined as a percentage of viable cells following treatment compared to the untreated control cells.

EC50 | SMILES
0.93 nM | CC1(C)CCC(CN2CCN(c3ccc(C(=O)NS(=O)(=O)c4ccc(OCC5(F)CCN(C6COC6)CC5)c([N+](=O)[O-])c4)c(Oc4cnc5[nH]ccc5c4)c3)CC2)=C(c2ccc(Cl)cc2)C1 [Example 167, 4-(4-{[2-(4-chlorophenyl)-4,4-dimethylcyclohex-1-en-1-yl]methyl}piperazin-1-yl)-N-({4-[(4-fluoro-1-oxetan-3-ylpiperidin-4-yl)methoxy]-3-nitrophenyl}sulfonyl)-2-(1H-pyrrolo[2,3-b]pyridin-5-yloxy)benzamide]
88.7 nM | CC1(C)CCC(CN2CCN(c3ccc(C(=O)NS(=O)(=O)c4ccc(OC[C@@H]5CC(F)(F)CN5C5COC5)c([N+](=O)[O-])c4)c(Oc4cnc5[nH]ccc5c4)c3)CC2)=C(c2ccc(Cl)cc2)C1 [Example 168, 4-(4-{[2-(4-chlorophenyl)-4,4-dimethylcyclohex-1-en-1-yl]methyl}piperazin-1-yl)-N-[(4-{[(2S)-4,4-difluoro-1-oxetan-3-ylpyrrolidin-2-yl]methoxy}-3-nitrophenyl)sulfonyl]-2-(1H-pyrrolo[2,3-b]pyridin-5-yloxy)benzamide]
76.3 nM | CC1(C)CCC(CN2CCN(c3ccc(C(=O)NS(=O)(=O)c4ccc(NCC5COCCN5C5CCOCC5)c([N+](=O)[O-])c4)c(Oc4cnc5[nH]ccc5c4)c3)CC2)=C(c2ccc(Cl)cc2)C1 (stereo not shown) [Example 169, 4-(4-{[2-(4-chlorophenyl)-4,4-dimethylcyclohex-1-en-1-yl]methyl}piperazin-1-yl)-N-[(3-nitro-4-{[(4-tetrahydro-2H-pyran-4-ylmorpholin-3-yl)methyl]amino}phenyl)sulfonyl]-2-(1H-pyrrolo[2,3-b]pyridin-5-yloxy)benzamide]
125 nM | CC1(C)CCC(CN2CCN(c3ccc(C(=O)NS(=O)(=O)c4ccc(NCC5COCCN5C5CCC5)c([N+](=O)[O-])c4)c(Oc4cnc5[nH]ccc5c4)c3)CC2)=C(c2ccc(Cl)cc2)C1 (stereo not shown) [Example 170, 4-(4-{[2-(4-chlorophenyl)-4,4-dimethylcyclohex-1-en-1-yl]methyl}piperazin-1-yl)-N-[(4-{[(4-cyclobutylmorpholin-3-yl)methyl]amino}-3-nitrophenyl)sulfonyl]-2-(1H-pyrrolo[2,3-b]pyridin-5-yloxy)benzamide]
52.7 nM | CC1(C)CCC(CN2CCN(c3ccc(C(=O)NS(=O)(=O)c4ccc(NCC5COCCN5C5CCOC5)c([N+](=O)[O-])c4)c(Oc4cnc5[nH]ccc5c4)c3)CC2)=C(c2ccc(Cl)cc2)C1 (stereo not shown) [Example 171, 4-(4-{[2-(4-chlorophenyl)-4,4-dimethylcyclohex-1-en-1-yl]methyl}piperazin-1-yl)-N-[(3-nitro-4-{[(4-tetrahydrofuran-3-ylmorpholin-3-yl)methyl]amino}phenyl)sulfonyl]-2-(1H-pyrrolo[2,3-b]pyridin-5-yloxy)benzamide]
20.5 nM | CC1(C)CCC(CN2CCN(c3ccc(C(=O)NS(=O)(=O)c4ccc(NCC5CCN(C(CF)CF)CC5)c([N+](=O)[O-])c4)c(Oc4cnc5[nH]ccc5c4)c3)CC2)=C(c2ccc(Cl)cc2)C1 [Example 172, 4-(4-{[2-(4-chlorophenyl)-4,4-dimethylcyclohex-1-en-1-yl]methyl}piperazin-1-yl)-N-({4-[({1-[2-fluoro-1-(fluoromethyl)ethyl]piperidin-4-yl}methyl)amino]-3-nitrophenyl}sulfonyl)-2-(1H-pyrrolo[2,3-b]pyridin-5-yloxy)benzamide]
5.16 nM | CC1(C)CCC(CN2CCN(c3ccc(C(=O)NS(=O)(=O)c4ccc(OCC5(F)CCN(C6CC6)CC5)c([N+](=O)[O-])c4)c(Oc4cnc5[nH]ccc5c4)c3)CC2)=C(c2ccc(Cl)cc2)C1 [Example 173, 4-(4-{[2-(4-chlorophenyl)-4,4-dimethylcyclohex-1-en-1-yl]methyl}piperazin-1-yl)-N-({4-[(1-cyclopropyl-4-fluoropiperidin-4-yl)methoxy]-3-nitrophenyl}sulfonyl)-2-(1H-pyrrolo[2,3-b]pyridin-5-yloxy)benzamide]
126 nM | COc1ccc(CNc2ccc(S(=O)(=O)NC(=O)c3ccc(N4CCN(CC5=C(c6ccc(Cl)cc6)CC(C)(C)CC5)CC4)cc3Oc3cnc4[nH]ccc4c3)cc2[N+](=O)[O-])cc1 [Example 174, 4-(4-{[2-(4-chlorophenyl)-4,4-dimethylcyclohex-1-en-1-yl]methyl}piperazin-1-yl)-N-({4-[(4-methoxybenzyl)amino]-3-nitrophenyl}sulfonyl)-2-(1H-pyrrolo[2,3-b]pyridin-5-yloxy)benzamide]
> 1000 nM | CC1(C)CCC(CN2CCN(c3ccc(C(=O)NS(=O)(=O)c4ccc(NCc5cccc(OC(F)(F)F)c5)c([N+](=O)[O-])c4)c(Oc4cnc5[nH]ccc5c4)c3)CC2)=C(c2ccc(Cl)cc2)C1 [Example 175, 4-(4-{[2-(4-chlorophenyl)-4,4-dimethylcyclohex-1-en-1-yl]methyl}piperazin-1-yl)-N-[(3-nitro-4-{[3-(trifluoromethoxy)benzyl]amino}phenyl)sulfonyl]-2-(1H-pyrrolo[2,3-b]pyridin-5-yloxy)benzamide]
134 nM | COc1cccc(CNc2ccc(S(=O)(=O)NC(=O)c3ccc(N4CCN(CC5=C(c6ccc(Cl)cc6)CC(C)(C)CC5)CC4)cc3Oc3cnc4[nH]ccc4c3)cc2[N+](=O)[O-])c1 [Example 176, 4-(4-{[2-(4-chlorophenyl)-4,4-dimethylcyclohex-1-en-1-yl]methyl}piperazin-1-yl)-N-({4-[(3-methoxybenzyl)amino]-3-nitrophenyl}sulfonyl)-2-(1H-pyrrolo[2,3-b]pyridin-5-yloxy)benzamide]
159 nM | CC1(C)CCC(CN2CCN(c3ccc(C(=O)NS(=O)(=O)c4ccc(NCc5ccc(OC(F)F)cc5)c([N+](=O)[O-])c4)c(Oc4cnc5[nH]ccc5c4)c3)CC2)=C(c2ccc(Cl)cc2)C1 [Example 177, 4-(4-{[2-(4-chlorophenyl)-4,4-dimethylcyclohex-1-en-1-yl]methyl}piperazin-1-yl)-N-[(4-{[4-(difluoromethoxy)benzyl]amino}-3-nitrophenyl)sulfonyl]-2-(1H-pyrrolo[2,3-b]pyridin-5-yloxy)benzamide]
202 nM | CC1(C)CCC(CN2CCN(c3ccc(C(=O)NS(=O)(=O)c4ccc(NC5CCC6(CC5)OCCO6)c([N+](=O)[O-])c4)c(Oc4cnc5[nH]ccc5c4)c3)CC2)=C(c2ccc(Cl)cc2)C1 [Example 178, 4-(4-{[2-(4-chlorophenyl)-4,4-dimethylcyclohex-1-en-1-yl]methyl}piperazin-1-yl)-N-{[4-(1,4-dioxaspiro[4.5]dec-8-ylamino)-3-nitrophenyl]sulfonyl}-2-(1H-pyrrolo[2,3-b]pyridin-5-yloxy)benzamide]
42.7 nM | CC(=O)N[C@H]1CC[C@H](Nc2ccc(S(=O)(=O)NC(=O)c3ccc(N4CCN(CC5=C(c6ccc(Cl)cc6)CC(C)(C)CC5)CC4)cc3Oc3cnc4[nH]ccc4c3)cc2[N+](=O)[O-])CC1 [Example 179, Trans-N-[(4-{[4-(acetylamino)cyclohexyl]amino}-3-nitrophenyl)sulfonyl]-4-(4-{[2-(4-chlorophenyl)-4,4-dimethylcyclohex-1-en-1-yl]methyl}piperazin-1-yl)-2-(1H-pyrrolo[2,3-b]pyridin-5-yloxy)benzamide]
11.8 nM | CC1(C)CCC(CN2CCN(c3ccc(C(=O)NS(=O)(=O)c4ccc(N[C@@H]5CCN(CC(F)F)C5)c([N+](=O)[O-])c4)c(Oc4cnc5[nH]ccc5c4)c3)CC2)=C(c2ccc(Cl)cc2)C1 [Example 180, 4-(4-{[2-(4-chlorophenyl)-4,4-dimethylcyclohex-1-en-1-yl]methyl}piperazin-1-yl)-N-[(4-{[(3R)-1-(2,2-difluoroethyl)pyrrolidin-3-yl]amino}-3-nitrophenyl)sulfonyl]-2-(1H-pyrrolo[2,3-b]pyridin-5-yloxy)benzamide]
106 nM | CC1(C)CCC(CN2CCN(c3ccc(C(=O)NS(=O)(=O)c4ccc(N[C@H]5CCN(CCF)C5)c([N+](=O)[O-])c4)c(Oc4cnc5[nH]ccc5c4)c3)CC2)=C(c2ccc(Cl)cc2)C1 [Example 181, 4-(4-{[2-(4-chlorophenyl)-4,4-dimethylcyclohex-1-en-1-yl]methyl}piperazin-1-yl)-N-[(4-{[(3S)-1-(2-fluoroethyl)pyrrolidin-3-yl]amino}-3-nitrophenyl)sulfonyl]-2-(1H-pyrrolo[2,3-b]pyridin-5-yloxy)benzamide]
123 nM | CC1(C)CCC(CN2CCN(c3ccc(C(=O)NS(=O)(=O)c4ccc(N[C@H]5CCN(CC(F)F)C5)c([N+](=O)[O-])c4)c(Oc4cnc5[nH]ccc5c4)c3)CC2)=C(c2ccc(Cl)cc2)C1 [Example 182, 4-(4-{[2-(4-chlorophenyl)-4,4-dimethylcyclohex-1-en-1-yl]methyl}piperazin-1-yl)-N-[(4-{[(3S)-1-(2,2-difluoroethyl)pyrrolidin-3-yl]amino}-3-nitrophenyl)sulfonyl]-2-(1H-pyrrolo[2,3-b]pyridin-5-yloxy)benzamide]
27.5 nM | CC1(C)CCC(CN2CCN(c3ccc(C(=O)NS(=O)(=O)c4ccc(NCc5ccc(O)cc5)c([N+](=O)[O-])c4)c(Oc4cnc5[nH]ccc5c4)c3)CC2)=C(c2ccc(Cl)cc2)C1 [Example 185, 4-(4-{[2-(4-chlorophenyl)-4,4-dimethylcyclohex-1-en-1-yl]methyl}piperazin-1-yl)-N-({4-[(4-hydroxybenzyl)amino]-3-nitrophenyl}sulfonyl)-2-(1H-pyrrolo[2,3-b]pyridin-5-yloxy)benzamide]
64.4 nM | CC1(C)CCC(CN2CCN(c3ccc(C(=O)NS(=O)(=O)c4ccc(NCc5cccc(O)c5)c([N+](=O)[O-])c4)c(Oc4cnc5[nH]ccc5c4)c3)CC2)=C(c2ccc(Cl)cc2)C1 [Example 186, 4-(4-{[2-(4-chlorophenyl)-4,4-dimethylcyclohex-1-en-1-yl]methyl}piperazin-1-yl)-N-({4-[(3-hydroxybenzyl)amino]-3-nitrophenyl}sulfonyl)-2-(1H-pyrrolo[2,3-b]pyridin-5-yloxy)benzamide]
215 nM | CC1(C)CCC(CN2CCN(c3ccc(C(=O)NS(=O)(=O)c4ccc(NCc5cccc(OC(F)F)c5)c([N+](=O)[O-])c4)c(Oc4cnc5[nH]ccc5c4)c3)CC2)=C(c2ccc(Cl)cc2)C1 [Example 187, 4-(4-{[2-(4-chlorophenyl)-4,4-dimethylcyclohex-1-en-1-yl]methyl}piperazin-1-yl)-N-[(4-{[3-(difluoromethoxy)benzyl]amino}-3-nitrophenyl)sulfonyl]-2-(1H-pyrrolo[2,3-b]pyridin-5-yloxy)benzamide]
